Data taken from PubChem BioAssay AID2060486 (Molecular Pharmacology Branch, DTP, NCI, 2025).

Tested on: IGROV1 complex spheroids (HUVEC, MSC), viability % test/control
Assay: Anticancer human tumor IGROV1 cell line growth inhibition [GQUAD];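 also: spheroids exposed to compounds for 7 days before readout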
Conditions: for IC50: curve of first compound; for viability, T/C: stronger effect = lower value
Text: DNA G-quadruplex Stabilizer Agents in Combinations in Complex Spheroids
A high-throughput screen of multi-cell type tumor spheroids was designed to identify active combinations of DNA G-quadruplex stabilizer agents and targeted small molecules. Complex spheroids include a stromal component modeled by human endothelial cells (HUVEC) and fibroblasts modeled by human mesenchymal stem cells (MSCs). The concentration ranges selected for each drug and investigational agent were based upon clinically achievable concentrations if the clinical Cmax of the agent was known.
Compounds. The drugs and investigational agents: pidnarulex (CX-5461; NSC782164), APTO-253 (NSC789042), BRACO-19 (NSC847499), peposertib (NSC802822), ceralasertib (NSC780249), elimusertib (NSC800525), camonsertib (NSC841442), AZD-1390 (NSC803789), olaparib (NSC753686), talazoparib (NSC767125), ART-558 (NSC835418), sotorasib (NSC818433), MRTX-1133 (NSC836407), SN-38 (NSC673596), topotecan (NSC609699), etoposide (NSC141540), doxorubicin (NSC123127), gemcitabine (NSC613327), 5-fluorouracil (NSC19893), paclitaxel (NSC125973), vemurafenib (NSC761431), panobinostat (NSC761190), R-306465 (JNJ-16241199; NSC773264), adavosertib (NSC754352), TP-3654 (NSC805149), carboplatin (NSC241240), KSQ-4279 (NSC840948), and staurosporine (NSC755774) were obtained from the National Cancer Institute (NCI) Developmental Therapeutics Program Chemical Repository (34). The FDA-approved anticancer drug set is available from the NCI Developmental Therapeutics Program. […] The stock solutions were prepared in dimethyl sulfoxide (DMSO, Sigma-Aldrich, St. Louis, MO, cat. D2650) at 800-fold the tested concentration and stored at -70 degrees C prior to their use. All drugs and investigational agents were tested over a range starting from a high concentration at or near the clinical Cmax and decreasing in half-log increments. If the clinical Cmax for an agent had not been determined, the highest concentration tested was 10 microM.
2.3 Cell Culture. All cells were maintained in an incubator at 37 degrees C and 5% CO2 with 95% humidity. The PDC lines were cultured according to standard operating procedures established by the NCI PDMR. All PDCs were thawed and cultured in Matrigel-coated flasks prepared with a working solution of 1X Ham's F-12 nutrient mix, without supplementation (Invitrogen, cat. 11765054), 100 U/mL penicillin-streptomycin (Invitrogen, cat. 15140122), and 2.5% Matrigel (Corning Inc., cat. 354248) for the first three passages. The 857933-349-R-J2-PDC line was cultured in 6C/Colon 1B media, which includes advanced DMEM/F-12 (Thermo Fisher Scientific, cat. 12634028), 10 mM HEPES (Thermo Fisher Scientific, cat. 15630080), 1X GlutaMAX supplement (Thermo Fisher Scientific, cat. 35050061), 0.1 mg/mL primocin (InvivoGen, cat. ant-pm-2), 10% defined fetal bovine serum, heat inactivated (HyClone Laboratories Inc., cat. SH30070.03HI), 50% L-WRN conditioned media (ATCC, cat. CRL-3276), 1.25 mM N-Acetyl-L-cysteine (Sigma-Aldrich, cat. A9165), 10 mM nicotinamide (Sigma-Aldrich, cat. N0636), 1X B-27 supplement (Thermo Fisher Scientific, cat. 17504044), 1X N-2 supplement (Thermo Fisher Scientific, cat. 17502048), 10 microM Y-27632 dihydrochloride (Tocris Bioscience, cat. 1254), and 50 ng/mL human EGF recombinant protein (Thermo Fisher Scientific, cat. PHG0311). The 485176-168-R4-J1-PDC line was cultured in Panc media, which includes all 6C/Colon 1B media components plus 100 ng/mL human FGF-10 (Thermo Fisher Scientific, cat. 100-26), 500 nM SB-431542 (Selleckchem, cat. S1067), and gastrin (Tocris, cat. 3006).
[…]

`CCc1c2c(nc3ccc(O)cc13)-c1cc3c(c(=O)n1C2)COC(=O)[C@]3(O)CC` + Cc1[nH]c2ccc(F)cc2c1-c1nc2c3cccnc3c3ncccc3c2[nH]1 was tested, and the IC50 (second compound 0.0316 µM) was 1.23 nM, the IC50 (second compound 0.1 µM) was 1.22 nM and the IC50 (second compound 0.316 µM) was < 0.999 nM. For the same compound, the IC50 (second compound 1 µM) was < 0.999 nM, the IC50 (second compound 3.16 µM) was < 0.999 nM and the IC50 (second compound 10 µM) was < 0.999 nM. The viability, T/C (second compound 0.0316 µM, first compound 0.000999 µM) was 57.7%, the viability, T/C (second compound 0.0316 µM, first compound 0.00316 µM) was 15.4% and the viability, T/C (second compound 0.0316 µM, first compound 0.00999 µM) was 10.2%. For the same compound, the viability, T/C (second compound 0.0316 µM, first compound 0.0316 µM) was 6.35%, the viability, T/C (second compound 0.0316 µM, first compound 0.0999 µM) was 4.8% and the viability, T/C (second compound 0.0316 µM, first compound 0.316 µM) was 1.3%. The viability, T/C (second compound 0.1 µM, first compound 0.000999 µM) was 58%, the viability, T/C (second compound 0.1 µM, first compound 0.00316 µM) was 12.6% and the viability, T/C (second compound 0.1 µM, first compound 0.00999 µM) was 10.4%. The viability, T/C (second compound 0.1 µM, first compound 0.0316 µM) was 6.87%, the viability, T/C (second compound 0.1 µM, first compound 0.0999 µM) was 4.33% and the viability, T/C (second compound 0.1 µM, first compound 0.316 µM) was 1.74%. The viability, T/C (second compound 0.316 µM, first compound 0.000999 µM) was 36%, the viability, T/C (second compound 0.316 µM, first compound 0.00316 µM) was 18.3% and the viability, T/C (second compound 0.316 µM, first compound 0.00999 µM) was 10.3%. It also gave a viability, T/C (second compound 0.316 µM, first compound 0.0316 µM) of 7.63%, a viability, T/C (second compound 0.316 µM, first compound 0.0999 µM) of 4.58% and a viability, T/C (second compound 0.316 µM, first compound 0.316 µM) of 1.81%. It also gave a viability, T/C (second compound 1 µM, first compound 0.000999 µM) of 4.92%, a viability, T/C (second compound 1 µM, first compound 0.00316 µM) of 3.7% and a viability, T/C (second compound 1 µM, first compound 0.00999 µM) of 3.69%. The viability, T/C (second compound 1 µM, first compound 0.0316 µM) was 2.84%, the viability, T/C (second compound 1 µM, first compound 0.0999 µM) was 2.04% and the viability, T/C (second compound 1 µM, first compound 0.316 µM) was 0.8%. The viability, T/C (second compound 3.16 µM, first compound 0.000999 µM) was 4.87%, the viability, T/C (second compound 3.16 µM, first compound 0.00316 µM) was 4.58% and the viability, T/C (second compound 3.16 µM, first compound 0.00999 µM) was 3.82%. For the same compound, the viability, T/C (second compound 3.16 µM, first compound 0.0316 µM) was 3.33%, the viability, T/C (second compound 3.16 µM, first compound 0.0999 µM) was 1.4% and the viability, T/C (second compound 3.16 µM, first compound 0.316 µM) was 0.62%. The viability, T/C (second compound 10 µM, first compound 0.000999 µM) was 4.11%, the viability, T/C (second compound 10 µM, first compound 0.00316 µM) was 3.78% and the viability, T/C (second compound 10 µM, first compound 0.00999 µM) was 4.08%. For the same compound, the viability, T/C (second compound 10 µM, first compound 0.0316 µM) was 3.15%, the viability, T/C (second compound 10 µM, first compound 0.0999 µM) was 1.92% and the viability, T/C (second compound 10 µM, first compound 0.316 µM) was 0.73%.
